From patent publication US6737383B1, “Herbicidal oxadiazolidines” (priority 1999, dated 2004)

How the values were obtained:
[1] = tested on: blackgrass; test: Test B pre/postemergence blackgrass; assay type: in vivo, Alopecurus myosuroides
Procedure, shortened: (§1)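 Test chemicals in a non-phytotoxic solvent mixture with surfactant were sprayed preemergence onto planted seeds and postemergence onto plants 2 to 18 cm tall (1- to 4-leaf stage). After twelve to sixteen days in a greenhouse, injury was visually rated against untreated controls from 0 (no effect) to 10 (complete control).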

[2] = tested on: rape; test: Test B pre/postemergence rape; assay type: in vivo, Brassica napus
Procedure, shortened: as §1

[3] = tested on: bamyardgrass; test: Test B flood test barnyardgrass; assay type: in vivo, Echinochloa crus-galli
Procedure, shortened: (§2)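 Flood test on plants grown to the 2-leaf stage; treated plants kept in greenhouse twelve to sixteen days, then visually rated against controls on a 0 (no effect) to 10 (complete control) scale.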

[4] = tested on: giant foxtail; test: Test B pre/postemergence giant foxtail; assay type: in vivo, Setaria faberii
Procedure, shortened: as §1

[5] = tested on: corn; test: Test B pre/postemergence corn; assay type: in vivo, Zea mays
Procedure, shortened: as §1

[6] = tested on: duck salad; test: Test B flood test duck salad; assay type: in vivo, Heteranthera limosa
Procedure, shortened: as §2

[7] = tested on: smallflower flatsedge; test: Test B flood test smallflower flatsedge; assay type: in vivo, Cyperus difformis
Procedure, shortened: as §2

[8] = tested on: bedstraw; test: Test B pre/postemergence bedstraw; assay type: in vivo, Galium aparine
Procedure, shortened: as §1

[9] = tested on: velvetleaf; test: Test B pre/postemergence velvetleaf; assay type: in vivo, Abutilon theophrasti
Procedure, shortened: as §1

[10] = tested on: purple nutsedge; test: Test B pre/postemergence purple nutsedge; assay type: in vivo, Cyperus rotundus
Procedure, shortened: as §1

[11] = tested on: surinam grass; test: Test B pre/postemergence surinam grass; assay type: in vivo, Brachiaria decumbens
Procedure, shortened: as §1

[12] = tested on: rice; test: Test B flood test rice; assay type: in vivo, Oryza sativa
Procedure, shortened: as §2

[13] = tested on: crabgrass; test: Test B pre/postemergence crabgrass; assay type: in vivo, Digitaria sanguinalis
Procedure, shortened: as §1

[14] = tested on: wheat; test: Test B pre/postemergence wheat; assay type: in vivo, Triticum aestivum
Procedure, shortened: as §1

[15] = tested on: wild oat; test: Test B pre/postemergence wild oat; assay type: in vivo, Avena fatua
Procedure, shortened: as §1

[16] = tested on: sugar beet; test: Test B pre/postemergence sugar beet; assay type: in vivo, Beta vulgaris
Procedure, shortened: as §1

[17] = Postemergence, Rate 125 g/ha, scale of 0 to 10 where 0 is no effect and 10 is complete control
[18] = Preemergence, Rate 62 g/ha, scale of 0 to 10 where 0 is no effect and 10 is complete control
[19] = Preemergence, Rate 125 g/ha, 0 is no effect, 10 is complete control
[20] = Preemergence, Rate 250 g/ha, scale 0 to 10, 0 is no effect, 10 is complete control
[21] = Preemergence, Rate 500 g/ha, scale 0 to 10 (0 no effect, 10 complete control)
[22] = Rate 62 g/ha, Postemergence, scale of 0 to 10 where 0 is no effect and 10 is complete control
[23] = Rate 250 g/ha, Postemergence, scale 0 to 10, 0 is no effect, 10 is complete control
[24] = Rate 500 g/ha, Postemergence, scale 0 to 10
[25] = Postemergence (flood test species), Rate 125 g/ha, scale of 0 to 10 where 0 is no effect and 10 is complete control
[26] = Rate 62 g/ha, Postemergence section, flood test species, scale of 0 to 10 where 0 is no effect and 10 is complete control
[27] = Rate 250 g/ha, Postemergence (flood test), scale 0 to 10, 0 is no effect, 10 is complete control
[28] = Rate 500 g/ha, listed under Postemergence (flood test species), scale 0 to 10

Cc1ccccc1-n1c(=O)on(C(=O)N(c2cccc(F)c2F)C(C)C)c1=O [Compound 171]
2: Blackgrass plant response rating [1, 21] | Crabgrass plant response rating [13, 18] | Plant response rating, Crabgrass [13, 23] | Wild oats plant response rating (0 to 10 scale) [15, 19] | Plant response rating, Sugarbeets [16, 23] | Sugarbeets plant response rating [16, 24]
7: Giant foxtail plant response rating (0 to 10 scale) [4, 19] | Bedstraw plant response rating [8, 17] | Crabgrass plant response rating (0 to 10 scale) [13, 19] | Crabgrass plant response rating [13, 24]
3: Velvetleaf plant response rating [9, 24] | B. signalgrass plant response rating [11, 20]
1: B. signalgrass plant response rating (0 to 10 scale) [11, 19]
4: Rape plant response rating [2, 21] | Wild oats plant response rating [15, 20]
0: Blackgrass plant response rating [1, 17] | Blackgrass plant response rating [1, 18] | Blackgrass plant response rating (0 to 10 scale) [1, 19] | Blackgrass plant response rating [1, 20] | Blackgrass plant response rating [1, 22] | Plant response rating, Blackgrass [1, 23] | Blackgrass plant response rating [1, 24] | Rape plant response rating [2, 17] | Rape plant response rating [2, 18] | Rape plant response rating (0 to 10 scale) [2, 19] | Rape plant response rating [2, 22] | Plant response rating, Rape [2, 23] | Rape plant response rating [2, 24] | Barnyardgrass plant response rating [3, 25] | Barnyardgrass plant response rating [3, 26] | Plant response rating, Barnyardgrass [3, 27] | Barnyardgrass plant response rating [3, 28] | Giant foxtail plant response rating [4, 17] | Giant foxtail plant response rating [4, 22] | Plant response rating, Giant foxtail [4, 23] | Giant foxtail plant response rating [4, 24] | Corn plant response rating [5, 17] | Corn plant response rating [5, 18] | Corn plant response rating (0 to 10 scale) [5, 19] | Corn plant response rating [5, 20] | Corn plant response rating [5, 21] | Corn plant response rating [5, 22] | Plant response rating, Corn [5, 23] | Corn plant response rating [5, 24] | Ducksalad plant response rating [6, 25] | Ducksalad plant response rating [6, 26] | Plant response rating, Ducksalad [6, 27] | Ducksalad plant response rating [6, 28] | S. Flatsedge plant response rating [7, 25] | S. Flatsedge plant response rating [7, 26] | Plant response rating, S. Flatsedge [7, 27] | S. Flatsedge plant response rating [7, 28] | Bedstraw plant response rating [8, 18] | Bedstraw plant response rating (0 to 10 scale) [8, 19] | Bedstraw plant response rating [8, 20] | Bedstraw plant response rating [8, 21] | Velvetleaf plant response rating [9, 18] | Velvetleaf plant response rating (0 to 10 scale) [9, 19] | Velvetleaf plant response rating [9, 20] | Velvetleaf plant response rating [9, 21] | Plant response rating, Velvetleaf [9, 23] | Nutsedge plant response rating [10, 17] | Nutsedge plant response rating [10, 18] | Nutsedge plant response rating (0 to 10 scale) [10, 19] | Nutsedge plant response rating [10, 20] | Nutsedge plant response rating [10, 21] | Nutsedge plant response rating [10, 22] | Plant response rating, Nutsedge [10, 23] | Nutsedge plant response rating [10, 24] | B. signalgrass plant response rating [11, 17] | B. signalgrass plant response rating [11, 18] | B. signalgrass plant response rating [11, 22] | Plant response rating, B. signalgrass [11, 23] | B. signalgrass plant response rating ([11]; Rate 500 g/ha, Postemergence, scale 0 to 10, 0 no effect, 10 complete control) | Rice plant response rating [12, 25] | Rice plant response rating [12, 26] | Plant response rating, Rice [12, 27] | Rice plant response rating [12, 28] | Crabgrass plant response rating [13, 17] | Crabgrass plant response rating [13, 22] | Wheat plant response rating [14, 18] | Wheat plant response rating (0 to 10 scale) [14, 19] | Wheat plant response rating [14, 20] | Wheat plant response rating [14, 21] | Plant response rating, Wheat [14, 23] | Wheat plant response rating [14, 24] | Wild oats plant response rating [15, 18] | Plant response rating, Wild oats [15, 23] | Wild oats plant response rating [15, 24] | Sugarbeets plant response rating [16, 17] | Sugarbeets plant response rating [16, 18] | Sugarbeets plant response rating (0 to 10 scale) [16, 19] | Sugarbeets plant response rating [16, 20] | Sugarbeets plant response rating [16, 21] | Sugarbeets plant response rating [16, 22]
5: Giant foxtail plant response rating [4, 18] | B. signalgrass plant response rating [11, 21] | Wild oats plant response rating [15, 21]
10: Giant foxtail plant response rating [4, 20] | Giant foxtail plant response rating [4, 21] | Crabgrass plant response rating [13, 20] | Crabgrass plant response rating [13, 21]
8: Plant response rating, Bedstraw [8, 23]
